O=[N+]([O-])c1cc([N+](=O)[O-])c(O)c(Cl)c1O
Settings | solubility (mole fraction)
in acetic acid, 299.35 K | 0.00649
in acetic acid, 305.55 K | 0.00872
in acetic acid, 311.45 K | 0.0112
in acetic acid, 315.05 K | 0.013
in acetic acid, 318.75 K | 0.0149
in acetic acid, 321.85 K | 0.0167
in acetic acid, 323.95 K | 0.0179
in acetic acid, 327.65 K | 0.0202
in acetic acid, 334.65 K | 0.0248
in acetic acid, 336.45 K | 0.026
in acetic acid, 340.45 K | 0.0289
in acetic acid, 343.15 K | 0.0308
in ethanol, 299.35 K | 0.00297
in ethanol, 303.15 K | 0.00355
in ethanol, 307.35 K | 0.00428
in ethanol, 310.75 K | 0.00493
in ethanol, 314.25 K | 0.00568
in ethanol, 317.65 K | 0.00648
in ethanol, 320.15 K | 0.00711
in ethanol, 326.35 K | 0.00882
in ethanol, 329.85 K | 0.00989
in ethanol, 332.65 K | 0.0108
in ethanol, 335.45 K | 0.0118
in ethanol, 339.15 K | 0.0131
in ethanol, 343.75 K | 0.0148
in ethyl acetate, 298.75 K | 0.0449
in ethyl acetate, 302.65 K | 0.0474
in ethyl acetate, 306.25 K | 0.0498
in ethyl acetate, 309.95 K | 0.0525
in ethyl acetate, 313.85 K | 0.0555
in ethyl acetate, 318.15 K | 0.0589
in ethyl acetate, 323.15 K | 0.0633
in ethyl acetate, 327.25 K | 0.067
in ethyl acetate, 331.85 K | 0.0716
in ethyl acetate, 333.35 K | 0.0731
in ethyl acetate, 337.15 K | 0.0772
in ethyl acetate, 342.55 K | 0.0834
in ethyl acetate, 344.95 K | 0.0863
in methanol, 299.75 K | 0.00172
in methanol, 305.95 K | 0.00239
in methanol, 308.75 K | 0.00277
in methanol, 311.25 K | 0.00316
in methanol, 313.65 K | 0.00359
in methanol, 315.95 K | 0.00406
in methanol, 318.15 K | 0.00456
in methanol, 320.75 K | 0.00524
in methanol, 323.35 K | 0.006
in methanol, 327.05 K | 0.00731
in methanol, 330.15 K | 0.0086
in water, 298.85 K | 3.49e-05
in water, 301.15 K | 3.65e-05
in water, 303.65 K | 4.23e-05
in water, 306.35 K | 4.59e-05
in water, 309.05 K | 4.86e-05
in water, 311.35 K | 5.44e-05
in water, 313.35 K | 5.67e-05
in water, 315.75 K | 6.29e-05
in water, 318.15 K | 6.8e-05
in water, 320.65 K | 7.62e-05
in water, 323.15 K | 8.17e-05
in water, 325.85 K | 9.12e-05
in water, 327.45 K | 9.79e-05
in water, 330.15 K | 0.000106
in water, 332.25 K | 0.000113
in water, 336.35 K | 0.00013
in water, 339.55 K | 0.000142
in water, 341.95 K | 0.000152

Source: BigSolDB 2.1
